Legend:
[1] = system: Vasopressin V2; test: Vasopressin V2 Antagonist Activity in Conscious Hydrated Rats; assay type: in vivo, rat; conditions: AVP 0.4 μg/kg i.p.
Procedure, shortened: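 Four-hour urine output, osmolality and electrolytes (Na+, K+, Cl−) recorded in water-loaded rats (30 mL/kg deionized water orally) given AVP i.p. at 0.4 μg/kg. Test compounds were given orally at 0.1–100 mg/kg 1 h before AVP; 2–4 rats per compound.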

[2] = system: Vasopressin V1; test: Vasopressin V1 Antagonist Activity in Conscious Rats (vasopressin vasopressor response); assay type: in vivo, rat; design: Average Change: unit not given here; conditions: for % Inhibition / Average Change: SHR
Procedure, shortened: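 Conscious rats are restrained supine, and under local 2% procaine a PE 10/20 cannula is passed through the ventral caudal tail artery into the lower abdominal aorta. The caudal vein is cannulated for intravenous dosing. Blood pressure is recorded with a Statham P23Db transducer, and vasopressin injections are repeated after compound dosing. Percent antagonism is calculated against the pre-drug vasopressor response taken as 100%.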

[3] = biological target: T1, Rat Hepatic V1 Receptors (Rattus norvegicus, UniProt P30560); test: Binding Assay to Rat Hepatic V1 Receptors; conditions: rat liver membranes; read-out: V1 IC50
T1 construct: Rat liver plasma membranes expressing the vasopressin V1 receptor subtypes; from tissue; host or cells: rat liver plasma membranes
T1 sequence (P30560 whole entry): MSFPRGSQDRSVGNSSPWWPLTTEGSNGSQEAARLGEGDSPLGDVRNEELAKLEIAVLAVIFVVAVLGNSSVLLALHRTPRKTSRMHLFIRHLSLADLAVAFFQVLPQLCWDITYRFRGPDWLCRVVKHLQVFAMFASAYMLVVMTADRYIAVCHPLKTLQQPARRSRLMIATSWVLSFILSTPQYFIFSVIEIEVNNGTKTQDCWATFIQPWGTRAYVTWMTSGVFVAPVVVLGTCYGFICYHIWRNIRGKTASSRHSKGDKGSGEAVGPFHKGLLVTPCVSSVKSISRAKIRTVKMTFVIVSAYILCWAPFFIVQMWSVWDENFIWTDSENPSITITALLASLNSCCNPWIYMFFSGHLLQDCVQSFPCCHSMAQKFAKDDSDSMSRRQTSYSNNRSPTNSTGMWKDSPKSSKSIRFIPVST

[4] = biological target: T2, Rat Kidney Medullary V2 Receptors (Rattus norvegicus, UniProt Q00788); test: Binding Assay to Rat Kidney Medullary V2 Receptors; conditions: rat kidney medulla membranes; read-out: V2 IC50
T2 construct: Medullary tissues from rat kidneys are dissected out; from tissue; host or cells: rat kidney medulla membranes
T2 sequence (Q00788 whole entry): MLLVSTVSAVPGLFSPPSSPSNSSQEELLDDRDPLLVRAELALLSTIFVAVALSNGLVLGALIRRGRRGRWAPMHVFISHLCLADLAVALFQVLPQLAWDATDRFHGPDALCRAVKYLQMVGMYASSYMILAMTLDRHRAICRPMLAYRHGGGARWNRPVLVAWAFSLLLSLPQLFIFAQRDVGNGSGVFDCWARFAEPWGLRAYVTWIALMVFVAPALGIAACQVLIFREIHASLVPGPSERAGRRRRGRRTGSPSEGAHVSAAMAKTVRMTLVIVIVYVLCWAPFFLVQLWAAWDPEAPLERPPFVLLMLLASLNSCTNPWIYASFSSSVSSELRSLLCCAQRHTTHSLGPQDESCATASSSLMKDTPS
Procedure, shortened: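 IC50 derived from competition curves; bound tritium counted by liquid scintillation after filtration. Rat medullary kidney membranes (Tris-HCl pH 7.4, BSA, PMSF) were incubated 120 min to equilibrium with radioligand and test compound (added in 50% DMSO). Nonspecific binding: 1.0 μM unlabeled ligand.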

[5] = 10 mg/kg i.v., VAS 0.01 i.u./kg, 30 min
[6] = 10 mg/kg i.v., VAS 0.01 i.u./kg, 60 min
[7] = 10 mg/kg i.v., VAS 0.01 i.u./kg, 90 min
[8] = 10 mg/kg i.v., VAS 0.01 i.u./kg, 120 min
[9] = 10 mg/kg i.v., VAS 0.01 i.u./kg, 180 min
[10] = 10 mg/kg i.v., VAS 0.01 i.u./kg, 240 min
[11] = 10 mg/kg i.v., VAS 0.01 i.u./kg, 300 min
[12] = 10 mg/kg i.v., VAS 0.02 i.u./kg, 30 min
[13] = 10 mg/kg i.v., VAS 0.02 i.u./kg, 60 min
[14] = 10 mg/kg i.v., VAS 0.02 i.u./kg, 90 min
[15] = 10 mg/kg i.v., VAS 0.02 i.u./kg, 120 min
[16] = 10 mg/kg i.v., VAS 0.02 i.u./kg, 180 min
[17] = 10 mg/kg i.v., VAS 0.02 i.u./kg, 240 min
[18] = 10 mg/kg i.v., VAS 0.02 i.u./kg, 300 min

COc1ccccc1C(=O)Nc1ccc(C(=O)N2Cc3cccn3Cc3ccccc32)cc1 [Example 2, N-[4-(5H-Pyrrolo[2,1-c][1,4]benzodiazepin-10(11H)-ylcarbonyl)phenyl]-2-methoxybenzamide]
Osmolality ([1]; 10 mg/kg orally): 1015 mOsm/kg | Urine Volume ([1]; 10 mg/kg orally): 9.3 ml/4 hrs | % Inhibition [2, 5]: 79% | Average Change [2, 5]: 6.5 | % Inhibition [2, 6]: 74% | Average Change [2, 6]: 8 | % Inhibition [2, 7]: 66% | Average Change [2, 7]: 10.5 | % Inhibition [2, 8]: 69% | Average Change [2, 8]: 9.5 | % Inhibition [2, 9]: 55% | Average Change [2, 9]: 14 | % Inhibition [2, 10]: 47% | Average Change [2, 10]: 16.5 | % Inhibition [2, 11]: 44% | Average Change [2, 11]: 17.5 | % Inhibition [2, 12]: 84% | Average Change [2, 12]: 8 | % Inhibition [2, 13]: 74% | Average Change [2, 13]: 13 | % Inhibition [2, 14]: 70% | Average Change [2, 14]: 15 | % Inhibition [2, 15]: 70% | Average Change [2, 15]: 15 | % Inhibition [2, 16]: 56% | Average Change [2, 16]: 22 | % Inhibition [2, 17]: 50% | Average Change [2, 17]: 25 | % Inhibition [2, 18]: 37% | Average Change [2, 18]: 31.5 | Max. % Inhibition ([2]; 30 mg/kg i.v.): 74% | Time (of max. % inhibition) ([2]; 30 mg/kg i.v.): 120 min | IC50 [3]: 0.031 µM | IC50 [4]: 0.014 µM

Cc1ccsc1C(=O)Nc1ccc(C(=O)N2Cc3cccn3Cc3ccccc32)cc1 [Example 5, N-[4-(5H-pyrrolo[2,1-c][1,4]benzodiazepin10(11H)-ylcarbonyl)phenyl]-3-methyl-2-thiophenecarboxamide]
Osmolality ([1]; 10 mg/kg orally): 1079 mOsm/kg | Urine Volume ([1]; 10 mg/kg orally): 8.5 ml/4 hrs | Osmolality ([1]; 30 mg/kg orally): 955 mOsm/kg | Urine Volume ([1]; 30 mg/kg orally): 7.7 ml/4 hrs | % Inhibition [2, 5]: 83% | Average Change [2, 5]: 5.5 | % Inhibition [2, 6]: 76% | Average Change [2, 6]: 7.5 | % Inhibition [2, 7]: 71% | Average Change [2, 7]: 9 | % Inhibition [2, 8]: 59% | Average Change [2, 8]: 13 | % Inhibition [2, 9]: 62% | Average Change [2, 9]: 12 | % Inhibition [2, 10]: 46% | Average Change [2, 10]: 17 | % Inhibition [2, 11]: 5% | Average Change [2, 11]: 30 | % Inhibition [2, 12]: 72% | Average Change [2, 12]: 13.5 | % Inhibition [2, 13]: 78% | Average Change [2, 13]: 10.5 | % Inhibition [2, 14]: 83% | Average Change [2, 14]: 8 | % Inhibition [2, 15]: 69% | Average Change [2, 15]: 15 | % Inhibition [2, 16]: 60% | Average Change [2, 16]: 19 | % Inhibition [2, 17]: 51% | Average Change [2, 17]: 23.5 | % Inhibition [2, 18]: 18% | Average Change [2, 18]: 39.5 | IC50 [3]: 0.015 µM | IC50 [4]: 0.025 µM

O=C(Nc1ccc(C(=O)N2Cc3cccn3Cc3ccccc32)cc1)c1ccccc1F [Example 8, N-[4-(5H-pyrrolo[2,1-c][1,4]benzodiazepin10(11H)-ylcarbonyl)phenyl]-2-fluorobenzamide]
Osmolality ([1]; 10 mg/kg orally): 1211 mOsm/kg | Urine Volume ([1]; 10 mg/kg orally): 3.4 ml/4 hrs | Osmolality ([1]; 30 mg/kg orally): 1010 mOsm/kg | Urine Volume ([1]; 30 mg/kg orally): 9.1 ml/4 hrs | % Inhibition [2, 5]: 61% | Average Change [2, 5]: 14.5 | % Inhibition [2, 6]: 61% | Average Change [2, 6]: 14.5 | % Inhibition [2, 7]: 73% | Average Change [2, 7]: 10 | % Inhibition [2, 8]: 69% | Average Change [2, 8]: 11.5 | % Inhibition [2, 9]: 62% | Average Change [2, 9]: 14 | % Inhibition [2, 10]: 59% | Average Change [2, 10]: 15 | % Inhibition [2, 11]: 51% | Average Change [2, 11]: 18 | % Inhibition [2, 12]: 54% | Average Change [2, 12]: 23.5 | % Inhibition [2, 13]: 58% | Average Change [2, 13]: 21.5 | % Inhibition [2, 14]: 66% | Average Change [2, 14]: 17.5 | % Inhibition [2, 15]: 70% | Average Change [2, 15]: 15.5 | % Inhibition [2, 16]: 46% | Average Change [2, 16]: 28 | % Inhibition [2, 17]: 44% | Average Change [2, 17]: 29 | % Inhibition [2, 18]: 46% | Average Change [2, 18]: 28 | IC50 [3]: 0.056 µM | IC50 [4]: 0.035 µM

O=C(Cc1ccccc1Cl)Nc1ccc(C(=O)N2Cc3cccn3Cc3ccccc32)cc1 [Example 9, 2-Chloro-N-[4-(5H-pyrrolo[2,1-c][1,4]-benzodiazepin-10(11H)-ylcarbonyl)phenyl]benzeneacetamide]
Osmolality ([1]; 10 mg/kg orally): 702 mOsm/kg | Urine Volume ([1]; 10 mg/kg orally): 5.8 ml/4 hrs | Max. % Inhibition ([2]; 10 mg/kg i.v.): 95% | Time (of max. % inhibition) ([2]; 10 mg/kg i.v.): 60 min | IC50 [3]: 0.007 µM | IC50 [4]: 0.004 µM

Cc1ccccc1C(=O)Nc1ccc(C(=O)N2Cc3cccn3-c3ccccc32)cc1 [Example 14, 2-Methyl-N-[4-(pyrrolo[1,2-a]quinoxalin-5 (4H)-ylcarbonyl)phenyl]benzamide]
Osmolality ([1]; 3 mg/kg orally): 1000 mOsm/kg | Urine Volume ([1]; 3 mg/kg orally): 4.5 ml/4 hrs | Osmolality ([1]; 10 mg/kg orally): 836 mOsm/kg | Urine Volume ([1]; 10 mg/kg orally): 5.2 ml/4 hrs | % Inhibition [2, 5]: 25% | Average Change [2, 5]: 26 | % Inhibition [2, 6]: 23% | Average Change [2, 6]: 26.5 | % Inhibition [2, 7]: 39% | Average Change [2, 7]: 21 | % Inhibition [2, 8]: 23% | Average Change [2, 8]: 26.5 | % Inhibition [2, 9]: 6% | Average Change [2, 9]: 32.5 | % Inhibition [2, 10]: 17% | Average Change [2, 10]: 28.5 | % Inhibition [2, 11]: 26% | Average Change [2, 11]: 25.5 | % Inhibition [2, 12]: 20% | Average Change [2, 12]: 38 | % Inhibition [2, 13]: 34% | Average Change [2, 13]: 31.5 | % Inhibition [2, 14]: 16% | Average Change [2, 14]: 40 | % Inhibition [2, 15]: 17% | Average Change [2, 15]: 39.5 | % Inhibition [2, 16]: -9% | Average Change [2, 16]: 52 | % Inhibition [2, 17]: 25% | Average Change [2, 17]: 35.5 | % Inhibition [2, 18]: 16% | Average Change [2, 18]: 40 | IC50 [3]: 0.17 µM | IC50 [4]: 0.066 µM

Source: US5624923A, “Tricyclic diazepine vasopressin antagonists and oxytocin antagonists” (priority 1995, dated 1997)
